Reference: ChEMBL document CHEMBL1155823, “The effect of 5-alkyl modification on the biological activity of pyrrolo[2,3-d]pyrimidine containing classical and nonclassical antifolates as inhibitors of dihydrofolate reductase and as antitumor and/or antiopportunistic infection agents” (J Med Chem, 2008)

How the values were obtained:
Thymidylate synthase [1] = target: T1, Thymidylate synthase (Homo sapiens, UniProt P04818); test: Inhibition of human thymidylate synthase
Target sequence in this assay (P04818 whole entry): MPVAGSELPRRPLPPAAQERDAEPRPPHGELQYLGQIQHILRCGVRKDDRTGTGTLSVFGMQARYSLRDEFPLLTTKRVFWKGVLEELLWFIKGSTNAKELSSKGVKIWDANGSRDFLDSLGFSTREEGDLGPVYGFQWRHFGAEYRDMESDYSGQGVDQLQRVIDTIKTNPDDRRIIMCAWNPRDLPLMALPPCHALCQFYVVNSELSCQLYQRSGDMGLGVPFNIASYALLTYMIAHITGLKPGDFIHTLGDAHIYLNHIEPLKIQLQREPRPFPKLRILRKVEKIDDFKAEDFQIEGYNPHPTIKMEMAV

[2] = target: T2, Bifunctional dihydrofolate reductase-thymidylate synthase (Toxoplasma gondii) (UniProt Q07422); test: Inhibition of Toxoplasma gondii thymidylate synthase at >[…] uM
T2 sequence (whole entry): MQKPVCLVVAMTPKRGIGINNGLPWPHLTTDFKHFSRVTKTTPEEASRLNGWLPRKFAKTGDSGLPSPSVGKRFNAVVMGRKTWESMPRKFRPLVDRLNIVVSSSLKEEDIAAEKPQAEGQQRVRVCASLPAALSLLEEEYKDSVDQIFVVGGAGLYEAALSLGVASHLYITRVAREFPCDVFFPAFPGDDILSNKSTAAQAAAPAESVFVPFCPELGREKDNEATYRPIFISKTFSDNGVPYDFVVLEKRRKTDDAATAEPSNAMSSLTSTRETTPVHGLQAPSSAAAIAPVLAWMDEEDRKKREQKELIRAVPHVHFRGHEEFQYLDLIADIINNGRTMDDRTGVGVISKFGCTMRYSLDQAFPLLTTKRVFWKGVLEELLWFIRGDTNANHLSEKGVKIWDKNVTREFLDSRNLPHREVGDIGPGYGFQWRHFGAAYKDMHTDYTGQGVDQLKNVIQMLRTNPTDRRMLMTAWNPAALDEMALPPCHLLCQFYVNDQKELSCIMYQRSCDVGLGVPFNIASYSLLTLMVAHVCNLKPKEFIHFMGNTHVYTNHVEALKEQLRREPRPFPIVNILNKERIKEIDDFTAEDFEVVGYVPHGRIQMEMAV

Thymidylate synthase [3] = target: T1, Thymidylate synthase; test: Inhibition of human thymidylate synthase at >23 uM
Target sequence in this assay (P04818 2-313 limits assumed): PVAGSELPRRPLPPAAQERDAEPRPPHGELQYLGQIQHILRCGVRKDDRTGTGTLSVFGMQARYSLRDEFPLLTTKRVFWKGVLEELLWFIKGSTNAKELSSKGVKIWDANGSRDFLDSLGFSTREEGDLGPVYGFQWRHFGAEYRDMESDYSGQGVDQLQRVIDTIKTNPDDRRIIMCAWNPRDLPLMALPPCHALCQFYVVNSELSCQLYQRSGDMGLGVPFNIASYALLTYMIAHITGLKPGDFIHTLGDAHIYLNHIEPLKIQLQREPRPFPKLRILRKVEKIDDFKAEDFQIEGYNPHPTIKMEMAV

[4] = target: T3, Bifunctional dihydrofolate reductase-thymidylate synthase (Toxoplasma gondii, UniProt Q07422); test: Inhibition of Toxoplasma gondii dihydrofolate reductase
T3 sequence (Q07422 whole entry): T2 sequence (whole entry)

[5] = target: Thymidylate synthase (Escherichia coli) (UniProt C3SWJ7); test: Inhibition of Escherichia coli thymidylate synthase at >[…] uM
Sequence of Thymidylate synthase (Escherichia coli) (C3SWJ7 1-264): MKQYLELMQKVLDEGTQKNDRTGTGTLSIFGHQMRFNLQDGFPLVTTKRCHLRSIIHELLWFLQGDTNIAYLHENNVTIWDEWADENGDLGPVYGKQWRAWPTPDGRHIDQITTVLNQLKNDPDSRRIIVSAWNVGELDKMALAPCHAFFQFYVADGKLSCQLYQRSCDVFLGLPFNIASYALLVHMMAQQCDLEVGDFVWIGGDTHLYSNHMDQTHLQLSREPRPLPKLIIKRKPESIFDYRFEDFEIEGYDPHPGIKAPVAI

Dihydrofolate reductase [6] = target: T4, Dihydrofolate reductase (Pneumocystis carinii, UniProt P16184)
T4 sequence (P16184 whole entry): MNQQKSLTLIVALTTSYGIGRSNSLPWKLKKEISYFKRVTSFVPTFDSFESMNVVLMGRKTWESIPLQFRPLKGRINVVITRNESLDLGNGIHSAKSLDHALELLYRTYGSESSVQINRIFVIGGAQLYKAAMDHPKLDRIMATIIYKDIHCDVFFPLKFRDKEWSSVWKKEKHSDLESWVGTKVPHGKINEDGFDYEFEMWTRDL

Dihydrofolate reductase [7] = target: T5, Dihydrofolate reductase (Rattus norvegicus, UniProt Q920D2)
T5 sequence (Q920D2 whole entry): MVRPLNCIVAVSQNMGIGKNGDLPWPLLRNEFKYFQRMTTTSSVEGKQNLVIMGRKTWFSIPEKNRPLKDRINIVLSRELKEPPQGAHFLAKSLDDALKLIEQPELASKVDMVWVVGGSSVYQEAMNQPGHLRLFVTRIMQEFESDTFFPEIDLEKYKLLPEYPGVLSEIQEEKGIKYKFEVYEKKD

Thymidylate synthase [8] = target: Thymidylate synthase (Escherichia coli, UniProt C3SWJ7); test: Inhibition of Escherichia coli thymidylate synthase
Sequence of Thymidylate synthase (Escherichia coli, UniProt C3SWJ7) (C3SWJ7 whole entry): as the sequence (C3SWJ7 1-264) above

[9] = target: T6, Dihydrofolate reductase (Homo sapiens) (UniProt P00374); test: Inhibition of human dihydrofolate reductase at >28 uM
T6 sequence (whole entry): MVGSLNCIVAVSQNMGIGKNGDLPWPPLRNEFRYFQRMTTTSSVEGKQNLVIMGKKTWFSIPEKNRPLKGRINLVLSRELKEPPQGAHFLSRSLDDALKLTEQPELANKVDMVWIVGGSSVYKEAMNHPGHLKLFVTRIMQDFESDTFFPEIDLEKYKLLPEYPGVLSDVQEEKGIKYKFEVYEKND

[10] = target: T3, Bifunctional dihydrofolate reductase-thymidylate synthase; test: Inhibition of Toxoplasma gondii thymidylate synthase
Dihydrofolate reductase [11] = target: T7, Dihydrofolate reductase (Homo sapiens, UniProt P00374)
T7 sequence (P00374 whole entry): T6 sequence (whole entry)

Thymidylate synthase [12] = target: T1, Thymidylate synthase; test: Inhibition of human thymidylate synthase at >[…] uM
Target sequence in this assay (P04818 2-313 limits assumed): as the sequence (P04818 2-313 limits assumed) above

[13] = target: T6, Dihydrofolate reductase (Homo sapiens); test: Inhibition of human dihydrofolate reductase at >[…] uM
Dihydrofolate reductase [14] = target: T4, Dihydrofolate reductase; remark: listed apart in the source
Dihydrofolate reductase [15] = target: T5, Dihydrofolate reductase; remark: listed apart in the source
[16] = target: Dihydrofolate reductase (Pneumocystis carinii) (UniProt P16184); test: Inhibition of Pneumocystis carinii DHFR at […] using dihydrofolic acid substrate and NADPH cofactor
[17] = target: Dihydrofolate reductase (Pneumocystis carinii) (UniProt P16184); test: Inhibition of Pneumocystis carinii DHFR at 22 uM using dihydrofolic acid substrate and NADPH cofactor
Thymidylate synthase [18] = target: T1, Thymidylate synthase; test: Inhibition of human thymidylate synthase at >14 uM
Target sequence in this assay (P04818 2-313 limits assumed): as above

[19] = target: Thymidylate synthase (Escherichia coli) (UniProt C3SWJ7); test: Inhibition of Escherichia coli thymidylate synthase at >14 uM
[20] = target: T6, Dihydrofolate reductase (Homo sapiens); test: Inhibition of human dihydrofolate reductase at >30 uM

| IC50 (Thymidylate synthase [1]) [µM] | inhibition (Thymidylate synthase [3]) [%] | inhibition [5] [%] | IC50 (Dihydrofolate reductase [6]) [µM] | IC50 (Dihydrofolate reductase [7]) [µM] | IC50 (Thymidylate synthase [8]) [µM] | inhibition [9] [%] | IC50 (Dihydrofolate reductase [11]) [µM] | inhibition (Thymidylate synthase [12]) [%] | inhibition [13] [%] | IC50 (Dihydrofolate reductase [14]) [µM] | IC50 (Dihydrofolate reductase [15]) [µM] | inhibition [16] [%] | inhibition [17] [%] | inhibition (Thymidylate synthase [18]) [%] | inhibition [19] [%] | inhibition [20] [%] | SMILES | inhibition [2] [%] | IC50 [4] [µM] | IC50 [10] [µM] |
| --- | --- | --- | --- | --- | --- | --- | --- | --- | --- | --- | --- | --- | --- | --- | --- | --- | --- | --- | --- | --- |
| > 23 | 0 | 0 | 35.6 | 50.3 | > 2.3 | 0 | > 28 | – | – | – | – | – | – | – | – | – | COc1ccc(OC)c(Sc2[nH]c3nc(N)nc(N)c3c2C(C)C)c1 | 0 | 1.4 | > 2.3 |
| > 23 | 14 | 0 | 10.9 | 13.5 | > 2.3 | – | > 27 | – | 0 | – | – | – | – | – | – | – | CC(C)c1c(Sc2ccc(Cl)c(Cl)c2)[nH]c2nc(N)nc(N)c12 | 0 | 1.4 | > 2.3 |
| > 12 | – | – | 0.68 | 0.91 | > 12 | – | > 29 | 0 | – | – | – | – | – | – | – | – | CC(C)c1c(Sc2cccc3ccccc23)[nH]c2nc(N)nc(N)c12 | 0 | 0.12 | > 12 |
| > 23 | 0 | 0 | 28.2 | 4.6 | > 2.3 | – | 27 | – | – | – | – | – | – | – | – | – | COc1ccc(Sc2[nH]c3nc(N)nc(N)c3c2C(C)C)cc1OC | 0 | 2.7 | > 2.3 |
| > 12 | – | – | – | 3.8 | > 12 | – | > 15 | 0 | 30 | 3.5 | – | 16 | – | – | – | – | CCCc1c(Sc2ccc3ccccc3c2)[nH]c2nc(N)nc(N)c12 | – | 0.15 | > 15 |
| > 22 | – | 0 | 5.35 | 5.95 | > 22 | – | 2.6 | – | – | – | – | – | – | – | – | – | CCCc1c(Sc2c(Cl)cccc2Cl)[nH]c2nc(N)nc(N)c12 | – | – | – |
| > 14 | – | – | 4.21 | – | > 14 | – | 33 | – | – | – | – | – | – | 0 | 0 | – | CCCc1c(Sc2ccccc2)[nH]c2nc(N)nc(N)c12 | – | 0.12 | > 1.4 |
| – | – | – | 10.4 | 8.9 | > 12 | 13 | > 28 | 0 | – | – | – | – | – | – | – | – | CCCc1c(Sc2cc(OC)ccc2OC)[nH]c2nc(N)nc(N)c12 | 0 | – | – |
| > 13 | – | 0 | 4.21 | 1.25 | > 13 | – | > 30 | – | – | – | – | – | – | – | – | 15 | CCCc1c(Sc2ccc(OC)cc2)[nH]c2nc(N)nc(N)c12 | 12 | 0.23 | > 13 |
| > 27 | – | 0 | 11.2 | 2 | > 2.7 | – | 16 | 0 | – | – | – | – | – | – | – | – | CC(C)c1c(Sc2ccccc2)[nH]c2nc(N)nc(N)c12 | 0 | 0.064 | > 2.7 |
| > 13 | – | 0 | – | 14.8 | > 13 | – | > 30 | – | – | – | – | – | – | – | – | 10 | Cc1cccc(C)c1Sc1[nH]c2nc(N)nc(N)c2c1C(C)C | 0 | 0.3 | > 13 |

The next lines start with the compound.

| SMILES | IC50 (Thymidylate synthase [1]) [µM] | inhibition (Thymidylate synthase [3]) [%] | inhibition [5] [%] | IC50 (Dihydrofolate reductase [6]) [µM] | IC50 (Dihydrofolate reductase [7]) [µM] | IC50 (Thymidylate synthase [8]) [µM] | inhibition [9] [%] | IC50 (Dihydrofolate reductase [11]) [µM] | inhibition (Thymidylate synthase [12]) [%] | inhibition [13] [%] | IC50 (Dihydrofolate reductase [14]) [µM] | IC50 (Dihydrofolate reductase [15]) [µM] | inhibition [16] [%] | inhibition [17] [%] | inhibition (Thymidylate synthase [18]) [%] | inhibition [19] [%] | inhibition [20] [%] | inhibition [2] [%] | IC50 [4] [µM] | IC50 [10] [µM] |
| --- | --- | --- | --- | --- | --- | --- | --- | --- | --- | --- | --- | --- | --- | --- | --- | --- | --- | --- | --- | --- |
| CC(C)c1c(Sc2ccc3ccccc3c2)[nH]c2nc(N)nc(N)c12 | > 24 | – | 0 | 7.1 | 2.1 | > 2.4 | – | > 29 | 39 | – | – | – | – | – | – | – | – | – | 1.5 | > 2.4 |
| COc1ccc(Sc2[nH]c3nc(N)nc(N)c3c2C(C)C)cc1 | > 25 | – | 0 | – | 1.9 | > 2.5 | – | 30 | – | – | – | – | – | – | – | – | – | – | 0.6 | > 2.5 |
| CCCc1c(Sc2c(C)cccc2C)[nH]c2nc(N)nc(N)c12 | > 24 | – | – | 5.32 | 2.43 | > 24 | – | 3 | – | – | – | – | – | – | – | – | – | – | – | – |
| CCCc1c(Sc2cccc3ccccc23)[nH]c2nc(N)nc(N)c12 | > 12 | – | – | 8.6 | 6.5 | > 12 | – | > 29 | 0 | – | – | – | – | – | – | – | – | 16 | 0.058 | > 12 |
| CCc1c(Sc2ccccc2)[nH]c2nc(N)nc(N)c12 | – | – | – | – | – | – | – | – | – | – | 21.8 | 5.6 | – | – | – | – | – | – | – | – |
| CCCc1c(Sc2ccc(OC)c(OC)c2)[nH]c2nc(N)nc(N)c12 | > 11 | – | 0 | 8.45 | 3.45 | > 11 | – | > 26 | 0 | 35 | – | – | – | – | – | – | – | – | 1 | > 11 |
| COc1ccc(OC)c(Cc2sc3nc(N)nc(N)c3c2C)c1 | – | – | – | – | – | – | – | – | – | – | – | – | – | – | – | – | – | – | 0.07 | – |
| CCc1c(Sc2cc(OC)ccc2OC)[nH]c2nc(N)nc(N)c12 | – | – | – | – | – | – | – | – | – | – | 6.04 | 4.05 | – | – | – | – | – | – | – | – |
| CC(C)c1c(Sc2c(Cl)cccc2Cl)[nH]c2nc(N)nc(N)c12 | > 22 | – | – | – | 2.4 | > 2.2 | – | > 26 | – | 37 | 22 | – | – | 14 | – | – | – | – | 0.52 | > 2.2 |
